Test results: PMC3436176 (The Journal of Biological Chemistry, 2012)

Assays:
[1] = molecular target: T1, GPVI-Fc2 (GPVI dimer) (Homo sapiens, UniProt Q9HCN6); test: ELISA: GPVI dimer binding to immobilized collagenous substrates; conditions: for Kd (monomer)/Kd (dimer): binding to collagenous substrates
T1 sequence (Q9HCN6 21-214 limits assumed): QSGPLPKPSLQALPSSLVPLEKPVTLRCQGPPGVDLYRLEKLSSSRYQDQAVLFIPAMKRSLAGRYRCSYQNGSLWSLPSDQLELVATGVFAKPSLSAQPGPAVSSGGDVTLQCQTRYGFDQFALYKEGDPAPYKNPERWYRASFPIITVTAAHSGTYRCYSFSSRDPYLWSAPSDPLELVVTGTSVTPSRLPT

[2] = tested on: GPVI on platelets; test: Flow cytometric GPVI quantitation; type: cell-based, human; conditions: dimers versus resting platelets
[3] = tested on: GPVI dimer on washed platelets; test: Time and agonist concentration dependence of dimer increase; type: cell-based, human
[4] = CRP 5 μg/ml or thrombin 0.2 unit/ml, washed platelets 2.5 × 10^8 cells/ml

| Kd (monomer)/Kd (dimer) [1] | Hill coefficient for dimer binding ([1]; mean ± S.E., n = 4-12 as printed) | Substance | % increase after activation [2] | time after which dimer levels started to increase [3, 4] | time at which dimer level reaches a maximum [3, 4] | agonist concentration at which dimer level reaches a maximum ([3]; washed platelets 1 × 10^8 cells/ml, FITC-m-Fab-F 100 μg/ml) |
| --- | --- | --- | --- | --- | --- | --- |
| 194.3 | 1.14 ± 0.07 | Collagen type I: Pepsin-treated bovine type I collagen from Koken |  |  |  |  |
| 887.0 |  | GPC–(GPP)5–GAOGARGGAGPOGPEGGKGAAGPOGPO(GPP)5–GPC–NH2 [III-30A] |  |  |  |  |
|  |  | Thrombin: bovine thrombin (Sigma), platelet agonist | 55% | 30 s | 4 to 5 min | > 0.5 unit/ml |
